Laboratory results: patent US20260018245A1, “SYSTEMS AND METHODS FOR IDENTIFYING AND TARGETING COLLATERAL LETHAL GENES” (The Regents of the University of Michigan, priority 2022, published 2026)

Assays:
[1] = tested on: reductive MTHFD2 flux in SKOV3 cells; assay: Reductive MTHFD2 flux by 2,3,3-[2H]-serine tracing; assay type: cell-based; conditions: SKOV3 treated with MTHFD2 inhibitor 60 μM
Method: FIG. 4 Dynamic flux analysis with parallel tracers to quantify oxidative MTHFD2 flux. a, Oxidative MTHFD2 flux and percentage decrease in OCRfollowing MTHFD2 inhibition in SKOV3 cells treated with rotenone (0, 31, 62, 125, 250, 500 or 1,000 nM) and MTHFD2 inhibitor (0 or 60 μM). Oxidative MTHFD2 flux is proportional to [2H1]-serine/[2H1]-NADH enrichment in cells cultured with 4-[2H]-glucose for 8 h. Percentage decrease in OCR is estimated in SKOV3 cells treated with 60 μM MTHFD2i compared with 0 μM MTHFD2i. Oxidative flux data are combined from two independent experiments (n=4), with mean±s.d. estimated using error propagation. […] (n=6) and analysed using two-tailed Welch's t-test. e, Ratio of [2H2]-serine/[2H]-NADH enrichment in SKOV3 and OVCAR8 cells at 2 h after combined tracer introduction of 4-[2H]-glucose and [2H]-formate, representing the normalized contribution of [2H]-NADH to [2H2]-serine via oxidative MTHFD2 flux. Data combined from two independent experiments (n=6), with mean±s.d. estimated using error propagation and analysed by two-tailed Welch's t-test. f, [2H2]-serine enrichment in SKOV3 cells expressing shScramble or shUQCR11 at 2 h after combined tracer introduction of 4-[2H]-glucose and [2H]-formate. […] (n=5) and analysed using one-tailed non-parametric Mann-Whitney test. […]

SKOV3 cells = assay: Two-drug synergy of rotenone and MTHFD2 inhibitor on viability (SynergyFinder); assay type: cell-based; conditions: MTHFD2 inhibitor combined with complex I inhibitor rotenone
Description: FIG. 11 Investigating alternative metabolic pathways to rescue UQCR11-null cells from collateral lethal targeting of MTHFD2. (a) Correlation between NDUFS7 mRNA expression and copy-number alterations of the 19p13.3 locus, represented by UQCR11 copy-number in TCGA OVCA dataset (n=303). Correlations estimated using Spearman's rank correlation test. (b) Gene expression of NDUFS7 measured via qRT-PCR in UQCR11-null lines (OVCAR8, CAOV3, HeyA8) relative to NDUFS7 expression in UQCR11-intact line (SKOV3). Data representative of two independent experiments presented as mean±s.d. (n=5), analyzed using ordinary one-way ANOVA with Dunnett's correction for multiple comparisons. (c) Doseresponse curve for single-agent inhibition in SKOV3 cells by either Complex I inhibitor, rotenone, or MTHFD2 inhibitor. […] Data are representative of two independent experiments and presented as mean±s.e.m (n=3) and analyzed using two-tailed Welch's t-test. […] Viability decrease was measured 72 h after inhibitor treatment relative to vehicle control. […] (n=6) and analyzed using ordinary 2-way ANOVA with Sidak's correction for multiple comparisons. […] (n=4) and analyzed using two-tailed Welch's t-test. […] Viability decrease was measured 72 h after inhibitor treatment relative to vehicle control. […] (n=5) and analyzed using two-tailed Welch's t-test.

Cc1c(N2CCN(C)[C@@H](C)C2)ccc2c3c(c(=O)oc12)CN(C(=O)c1ccc(NS(C)(=O)=O)c(OC(F)(F)F)c1)CC3 [DS18561882]
reductive MTHFD2 flux [1]: greatly reduced
effect of co-inhibition on viability (SKOV3 cells): synergistic effect
